inhibition, Emax and IC50 data for seven molecules are collected here from patent publication US20250326753A1, “DUAL CXCR4-BTK INHIBITORS” (X4 Pharmaceuticals, Inc., priority 2022, published 2025).

Read-outs that look alike come from different tables or passages of the source.

Assay [1] has as its target T1, TRKB (Homo sapiens, UniProt Q16620).
T1 construct: purchased Reaction Biology Europe GmbH
Nature of the assay: PanQinase kinase panel: TRKB. It is filed as biochemical. Conditions: read-out: INHIBITORY EFFECT @ 1 uM: TRKB. How it is done:
(§1) Screening procedures were performed in accordance with the company's on-line protocol [accessed on-line Mar.
(§2) For each kinase, the median value of the cpm of three wells was defined as “low control” (n=3). This value reflects unspecific binding of radioactivity to the plate in the absence of a protein kinase but in the presence of the substrate. Additionally, for each kinase the median value of the cpm of three other wells was taken as the “high control,” i.e. full activity in the absence of any inhibitor (n=3). The difference between high and low control of each enzyme was taken as 100% activity.
(§3) As part of the data evaluation the low control of each kinase was subtracted from the high control value as well as from their corresponding “compound values”. The residual activity (in %) for each compound well was calculated by using the following formula: Res. Activity (%)=100×[(signal of compound−low control)/(high control−low control)].

The target of assay [2] is T2, ERBB4 (Homo sapiens, UniProt Q15303).
T2 construct: purchased Reaction Biology Europe GmbH
T2 sequence (Q15303 26-1308): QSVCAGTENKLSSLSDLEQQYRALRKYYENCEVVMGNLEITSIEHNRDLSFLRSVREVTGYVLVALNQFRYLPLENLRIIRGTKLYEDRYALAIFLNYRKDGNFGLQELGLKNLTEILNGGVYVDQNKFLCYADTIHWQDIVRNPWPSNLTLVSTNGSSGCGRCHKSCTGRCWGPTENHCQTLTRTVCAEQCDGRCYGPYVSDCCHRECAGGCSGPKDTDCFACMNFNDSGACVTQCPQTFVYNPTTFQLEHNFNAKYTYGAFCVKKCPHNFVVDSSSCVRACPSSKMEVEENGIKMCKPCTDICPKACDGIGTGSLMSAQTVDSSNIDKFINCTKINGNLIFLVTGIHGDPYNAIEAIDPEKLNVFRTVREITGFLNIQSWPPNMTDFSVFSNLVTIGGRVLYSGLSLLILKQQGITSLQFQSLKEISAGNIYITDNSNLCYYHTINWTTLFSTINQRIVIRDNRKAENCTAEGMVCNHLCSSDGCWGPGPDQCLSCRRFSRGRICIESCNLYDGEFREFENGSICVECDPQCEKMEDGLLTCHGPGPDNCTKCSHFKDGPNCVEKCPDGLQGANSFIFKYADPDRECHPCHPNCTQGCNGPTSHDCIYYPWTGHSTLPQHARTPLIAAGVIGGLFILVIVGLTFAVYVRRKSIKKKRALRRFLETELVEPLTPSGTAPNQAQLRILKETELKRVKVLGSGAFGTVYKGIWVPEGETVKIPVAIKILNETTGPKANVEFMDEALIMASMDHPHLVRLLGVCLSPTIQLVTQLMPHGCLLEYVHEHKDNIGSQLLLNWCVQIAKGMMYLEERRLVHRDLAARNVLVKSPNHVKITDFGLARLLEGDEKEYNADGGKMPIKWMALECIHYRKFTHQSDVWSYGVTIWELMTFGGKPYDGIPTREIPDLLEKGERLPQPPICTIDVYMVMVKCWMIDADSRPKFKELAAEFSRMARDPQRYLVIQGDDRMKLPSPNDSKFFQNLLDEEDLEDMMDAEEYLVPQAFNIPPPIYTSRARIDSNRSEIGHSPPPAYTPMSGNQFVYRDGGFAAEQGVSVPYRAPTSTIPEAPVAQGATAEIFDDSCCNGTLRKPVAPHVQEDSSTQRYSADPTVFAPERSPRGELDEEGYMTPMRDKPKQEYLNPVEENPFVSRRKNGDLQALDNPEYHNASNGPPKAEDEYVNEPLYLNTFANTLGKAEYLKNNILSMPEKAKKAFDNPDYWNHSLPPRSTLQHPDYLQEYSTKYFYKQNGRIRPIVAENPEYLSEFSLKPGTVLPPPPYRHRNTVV
The experiment in a line: PanQinase kinase panel: ERBB4. It is filed as biochemical. The note with it: read-out: INHIBITORY EFFECT @ 1 uM: ERBB4. How it is done:
as §1, §2
(§4) As part of the data evaluation the low control of each kinase was subtracted from the high control value as well as from their corresponding “compound values”.

The target in assay [3] is T3, EPHA6 (Homo sapiens, UniProt Q9UF33).
T3 construct: purchased Reaction Biology Europe GmbH
T3 sequence (Q9UF33 23-1036): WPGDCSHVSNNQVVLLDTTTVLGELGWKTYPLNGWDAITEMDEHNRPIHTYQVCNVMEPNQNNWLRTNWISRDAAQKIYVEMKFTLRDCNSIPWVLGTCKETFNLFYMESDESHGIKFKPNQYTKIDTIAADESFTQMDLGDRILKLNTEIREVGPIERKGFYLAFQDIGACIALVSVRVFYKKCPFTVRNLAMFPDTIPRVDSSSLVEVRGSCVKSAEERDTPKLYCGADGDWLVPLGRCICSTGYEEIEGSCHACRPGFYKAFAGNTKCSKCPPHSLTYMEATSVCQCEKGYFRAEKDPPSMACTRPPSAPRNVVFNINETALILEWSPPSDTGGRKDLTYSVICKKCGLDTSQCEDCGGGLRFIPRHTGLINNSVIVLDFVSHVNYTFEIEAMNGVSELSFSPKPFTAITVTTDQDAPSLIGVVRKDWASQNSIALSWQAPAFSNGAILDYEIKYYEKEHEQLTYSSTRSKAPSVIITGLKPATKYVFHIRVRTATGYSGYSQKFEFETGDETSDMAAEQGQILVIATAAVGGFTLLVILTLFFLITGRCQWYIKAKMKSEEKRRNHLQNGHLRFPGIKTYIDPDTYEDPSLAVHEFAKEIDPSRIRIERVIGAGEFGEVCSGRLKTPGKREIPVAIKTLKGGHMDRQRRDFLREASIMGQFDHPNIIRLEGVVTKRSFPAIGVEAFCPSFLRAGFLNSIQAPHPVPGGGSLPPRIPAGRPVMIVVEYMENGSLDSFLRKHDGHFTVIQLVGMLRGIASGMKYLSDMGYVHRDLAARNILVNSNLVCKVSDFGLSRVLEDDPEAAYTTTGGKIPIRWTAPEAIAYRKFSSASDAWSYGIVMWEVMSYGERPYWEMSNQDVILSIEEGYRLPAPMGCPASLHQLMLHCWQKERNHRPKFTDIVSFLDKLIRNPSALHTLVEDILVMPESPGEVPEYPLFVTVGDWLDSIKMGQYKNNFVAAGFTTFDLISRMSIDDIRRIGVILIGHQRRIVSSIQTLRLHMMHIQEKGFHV
The experiment in a line: PanQinase kinase panel: EPHA6. The note with it: read-out: INHIBITORY EFFECT @ 1 uM: EPHA6. In kind it is biochemical. How it is done:
as §1, §2, §3

Assay [4] deals with T4, LRRK2 (Homo sapiens, UniProt Q5S007).
T4 construct: purchased Reaction Biology Europe GmbH
The experiment in a line: PanQinase kinase panel: LRRK2. In kind it is biochemical. Conditions: read-out: INHIBITORY EFFECT @ 1 uM: LRRK2. Here is the method: as §1, §2, §3

The target of assay [5] is T5, KIT (Homo sapiens, UniProt P10721).
T5 construct: purchased Reaction Biology Europe GmbH
T5 sequence (P10721 26-976): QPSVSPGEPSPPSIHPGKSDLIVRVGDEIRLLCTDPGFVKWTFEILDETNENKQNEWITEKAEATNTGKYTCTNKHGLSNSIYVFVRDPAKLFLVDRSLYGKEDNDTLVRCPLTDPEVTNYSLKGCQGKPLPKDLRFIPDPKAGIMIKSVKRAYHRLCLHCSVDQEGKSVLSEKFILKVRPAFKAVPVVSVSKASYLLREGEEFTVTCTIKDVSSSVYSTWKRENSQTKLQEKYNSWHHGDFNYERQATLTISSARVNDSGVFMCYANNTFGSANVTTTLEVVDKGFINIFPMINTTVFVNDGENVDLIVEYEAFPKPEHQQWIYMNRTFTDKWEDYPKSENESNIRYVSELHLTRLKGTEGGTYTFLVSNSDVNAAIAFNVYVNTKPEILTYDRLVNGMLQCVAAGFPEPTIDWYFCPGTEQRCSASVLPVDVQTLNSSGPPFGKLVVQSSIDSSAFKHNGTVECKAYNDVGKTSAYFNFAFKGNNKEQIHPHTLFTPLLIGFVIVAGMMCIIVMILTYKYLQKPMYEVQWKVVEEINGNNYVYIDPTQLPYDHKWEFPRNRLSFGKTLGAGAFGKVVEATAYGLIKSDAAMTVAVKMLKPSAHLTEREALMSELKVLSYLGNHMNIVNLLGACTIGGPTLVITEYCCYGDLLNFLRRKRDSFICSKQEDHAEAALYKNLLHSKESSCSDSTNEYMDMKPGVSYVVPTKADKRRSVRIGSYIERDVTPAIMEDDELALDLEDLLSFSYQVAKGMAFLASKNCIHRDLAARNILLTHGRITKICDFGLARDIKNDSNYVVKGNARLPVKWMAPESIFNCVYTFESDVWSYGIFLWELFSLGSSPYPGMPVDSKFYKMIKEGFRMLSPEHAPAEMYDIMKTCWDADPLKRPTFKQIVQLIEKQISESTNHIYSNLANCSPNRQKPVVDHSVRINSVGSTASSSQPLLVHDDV
The experiment in a line: PanQinase kinase panel: KIT. In kind it is biochemical. Conditions: read-out: INHIBITORY EFFECT @ 1 uM: KIT. How it is done: as §1, §2, §3

The target of assay [6] is T6, BLK (Homo sapiens, UniProt P51451).
T6 construct: purchased Reaction Biology Europe GmbH
Nature of the assay: PanQinase kinase panel: BLK. In kind it is biochemical. Conditions: read-out: INHIBITORY EFFECT @ 1 uM: BLK. Here is the method:
as §1, §2, §4

Assay [7] concerns the target T7, HCK (Homo sapiens, UniProt P08631).
T7 construct: purchased Reaction Biology Europe GmbH
The experiment in a line: PanQinase kinase panel: HCK. It is filed as biochemical. The note with it: read-out: INHIBITORY EFFECT @ 1 uM: HCK. How it is done:
as §1, §2, §3

For assay [8], the system named is T98G. Nature of the assay: Glioblastoma multiforme cell proliferation assay (CellTiter Glo), T98G. Conditions: Homo sapiens; for Emax: read-out: GBM-T-98G Cell Proliferation Emax %. It is filed as cell-based. Here is the method: Inhibition of glioblastoma multiforme cell proliferation by compounds of the present invention was evaluated in U-87 MG (ATCC; Cat. No. HTB-14; Lot. No. 5018014) and T98G (ATCC; Cat. No. CRL-1690; Lot. No. 58267513) cell lines. These are adherent cell lines isolated from glioblastoma multiforme/malignant glioma, which express both CXCR4 and BTK (see Zhou et al. 2002 and Yue et al. 2017).
Cell viability was analyzed with the CellTiter Glo Cell assay kit ([…], Cat. No. G7573, Lot. No. 0000474103), according to the manufacturer's instruction.
U-87 MG and T98G cells were seeded onto 384-well opaque-walled clear bottom plates (Corning, Cat. No. 3765, Lot. No. 34319047) in EMEM (Invitrogen, Cat. No. 11095-080; Lot. No. 2276656) supplemented with 10% FBS (Invitrogen, Cat. No. 10099-141C, Lot. No. 2145169CP), at a seeding density of 1000 or 1200 cells per well, respectively, and then incubated in 5% CO2 at 37° C. overnight.
Compounds were prepared as stock solutions of 30 mM in DMSO (Sigma, Cat. No. 276855-1L. Lot. No. SHBL5610). Compounds were added to the cells, with 10 dose points in duplicates, in 3-fold dilution from a top concentration of 30 μM (final DMSO concentration […]), and incubated in 5% CO2 at 37° C. for 96 hr.
The 384-well plates were equilibrated at room temperature for approximately 30 min. 25 μl of CellTiter-Glo® Reagent was added to each well and mixed for 10 min on an orbital shaker to induce cell lysis. The 384-well plates were incubated at room temperature for 10 min to stabilize luminescent signal. Luminescence was detected on a PerkinElmer EnVision Multimode Plate Reader (measurement time 0.1s) as relative luminescence units (RLU).
For orientation: ATP-based viability assays read luminescence as a measure of living cells.

Assay [9] concerns the target T8, ABL2 (Homo sapiens, UniProt P42684).
T8 construct: purchased Reaction Biology Europe GmbH
Nature of the assay: PanQinase kinase panel: ABL2. It is filed as biochemical. How it is done:
as §1, §2, §3

The mark [10] stands for this setting: read-out: INHIBITORY EFFECT @ 1 uM: ABL2.
[11] abbreviates: Table 6A, cell viability, 96 hr, read-out: T98G IC50.

T7 sequence (P08631 whole entry): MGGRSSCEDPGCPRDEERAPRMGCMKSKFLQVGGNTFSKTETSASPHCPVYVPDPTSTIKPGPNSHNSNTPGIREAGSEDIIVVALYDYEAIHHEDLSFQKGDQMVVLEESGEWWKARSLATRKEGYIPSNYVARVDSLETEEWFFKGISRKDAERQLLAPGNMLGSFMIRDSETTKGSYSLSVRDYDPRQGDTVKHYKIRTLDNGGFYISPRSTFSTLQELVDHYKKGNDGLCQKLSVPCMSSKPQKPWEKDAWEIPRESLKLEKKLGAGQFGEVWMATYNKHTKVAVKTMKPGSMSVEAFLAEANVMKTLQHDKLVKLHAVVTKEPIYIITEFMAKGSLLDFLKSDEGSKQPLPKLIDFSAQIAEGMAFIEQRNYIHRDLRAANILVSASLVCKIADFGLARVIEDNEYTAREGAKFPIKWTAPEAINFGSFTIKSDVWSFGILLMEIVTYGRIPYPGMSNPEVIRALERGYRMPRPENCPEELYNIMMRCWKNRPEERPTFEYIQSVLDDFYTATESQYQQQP
T8 sequence (P42684 whole entry): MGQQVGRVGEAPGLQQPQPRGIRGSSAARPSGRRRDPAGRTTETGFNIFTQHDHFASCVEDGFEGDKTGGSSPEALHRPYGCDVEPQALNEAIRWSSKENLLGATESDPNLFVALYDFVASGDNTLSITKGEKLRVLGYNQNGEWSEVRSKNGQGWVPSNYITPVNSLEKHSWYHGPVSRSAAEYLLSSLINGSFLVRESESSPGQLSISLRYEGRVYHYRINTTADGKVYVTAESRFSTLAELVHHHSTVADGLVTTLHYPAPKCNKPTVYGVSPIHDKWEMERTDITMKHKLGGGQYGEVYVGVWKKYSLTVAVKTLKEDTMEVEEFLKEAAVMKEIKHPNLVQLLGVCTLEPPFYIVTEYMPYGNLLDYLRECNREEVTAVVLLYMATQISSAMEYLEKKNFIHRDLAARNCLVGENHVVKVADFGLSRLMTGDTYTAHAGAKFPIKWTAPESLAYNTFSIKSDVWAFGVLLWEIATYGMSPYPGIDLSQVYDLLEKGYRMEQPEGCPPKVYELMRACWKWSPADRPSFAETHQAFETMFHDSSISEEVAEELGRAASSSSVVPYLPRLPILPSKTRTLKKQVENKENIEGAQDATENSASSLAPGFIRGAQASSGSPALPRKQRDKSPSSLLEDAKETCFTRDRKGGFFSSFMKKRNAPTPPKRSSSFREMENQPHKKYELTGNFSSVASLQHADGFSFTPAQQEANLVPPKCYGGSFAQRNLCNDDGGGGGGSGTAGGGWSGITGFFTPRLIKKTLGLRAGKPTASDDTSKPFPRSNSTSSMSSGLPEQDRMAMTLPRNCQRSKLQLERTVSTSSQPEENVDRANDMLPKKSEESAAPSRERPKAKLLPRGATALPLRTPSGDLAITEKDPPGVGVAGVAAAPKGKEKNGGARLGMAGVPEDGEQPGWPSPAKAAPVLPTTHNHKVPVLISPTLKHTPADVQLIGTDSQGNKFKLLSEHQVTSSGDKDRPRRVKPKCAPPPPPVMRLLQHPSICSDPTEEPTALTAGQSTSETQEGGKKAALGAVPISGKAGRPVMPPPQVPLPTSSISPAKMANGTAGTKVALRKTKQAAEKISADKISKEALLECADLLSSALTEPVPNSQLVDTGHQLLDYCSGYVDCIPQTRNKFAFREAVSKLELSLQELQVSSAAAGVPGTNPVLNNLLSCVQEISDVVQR
T1 sequence (Q16620 32-822): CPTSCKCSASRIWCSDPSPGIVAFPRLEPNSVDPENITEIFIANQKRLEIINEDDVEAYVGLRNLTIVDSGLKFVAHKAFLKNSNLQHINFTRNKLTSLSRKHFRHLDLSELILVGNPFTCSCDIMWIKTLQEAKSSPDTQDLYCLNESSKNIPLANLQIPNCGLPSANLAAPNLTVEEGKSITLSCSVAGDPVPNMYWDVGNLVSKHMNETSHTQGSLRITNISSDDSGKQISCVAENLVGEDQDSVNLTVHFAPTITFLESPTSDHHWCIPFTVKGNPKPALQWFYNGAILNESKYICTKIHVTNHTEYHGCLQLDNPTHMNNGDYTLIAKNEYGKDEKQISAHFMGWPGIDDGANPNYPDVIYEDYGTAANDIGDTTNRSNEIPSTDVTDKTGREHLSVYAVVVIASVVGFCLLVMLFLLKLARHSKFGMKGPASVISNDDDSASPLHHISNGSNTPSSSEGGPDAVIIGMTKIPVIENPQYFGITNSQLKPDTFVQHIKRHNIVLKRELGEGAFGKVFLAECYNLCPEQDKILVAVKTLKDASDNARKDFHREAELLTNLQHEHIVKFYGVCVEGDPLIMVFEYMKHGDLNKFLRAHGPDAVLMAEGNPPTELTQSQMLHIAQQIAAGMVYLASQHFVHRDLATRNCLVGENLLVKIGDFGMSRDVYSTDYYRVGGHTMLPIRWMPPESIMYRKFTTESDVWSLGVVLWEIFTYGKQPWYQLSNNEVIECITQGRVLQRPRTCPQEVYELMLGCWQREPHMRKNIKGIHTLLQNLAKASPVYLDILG

As to `O=C(c1ccc(Oc2ccccc2)cc1Cl)c1c[nH]c2ncnc(N[C@@H]3CC[C@@H](CO)OC3)c12` [ARQ-531, (2-chloro-4-phenoxyphenyl) (4-(((3R,6S)-6-(hydroxymethyl)tetrahydro-2H-pyran-3-yl)amino)-7H-pyrrolo[2,3-d]pyrimidin-5-yl) methanone], the inhibition at 1 µM in [1] is under 50%; in assay [2], 90 to 100%; in assay [3], 50 to 69%; in assay [4], 50 to 69%; in assay [5] it was 90 to 100%; in assay [6], 90 to 100%. Further, in assay [7], the inhibition at 1 µM lay within 70 to 89%.

In the case of `Cc1cccnc1[C@H]1CCC[C@@H](c2ncccc2C)N1CCN1CCN(C(=O)c2ccc(-c3cc4c(-c5cccc(NC(=O)c6ccccc6)c5C)ncnc4[nH]3)cc2)CC1` [Compound I-10, N-(3-(6-(4-(4-(2-((2R,6S)-2,6-bis(3-methylpyridin-2-yl)piperidin-1-yl)ethyl)piperazine-1-carbonyl)phenyl)-7H-pyrrolo[2,3-d]pyrimidin-4-yl)-2-methylphenyl)benzamide], the inhibition at 1 µM in [1], in assay [2], in assay [3], in assay [4], in assay [5] and in [6] was under 50% throughout. In addition, the inhibition at 1 µM in assay [7] is under 50%; in [9] (at 1 μM, read-out: inhibition of ABL2) it was 50 to 89%; in assay [9] (setting [10]), 70 to 89%. In assay [8] (Table 6B), the Emax was found to be 93%. In addition, the IC50 in assay [8] (read-out: GBM-T-98G Cell Proliferation IC50 uM) is 2.66 µM.

In the case of `Cc1cc(-c2ccnc(Nc3cnn(CCN4[C@@H](c5ncccc5C)CCC[C@H]4c4ncccc4C)c3)n2)ccc1CNC(=O)N1CC(OC(C)C)C1` [Compound I-11], the Emax in assay [8] (Table 6B) amounted to 98%. In assay [8] (Table 6B, read-out: GBM-T-98G Cell Proliferation IC50), the IC50 turned out to be 3.28 µM.

`Cc1cccnc1[C@H]1CCC[C@@H](c2ncccc2C)N1CCCCNC(=O)[C@@H]1CC[C@@H](Nc2ncnc3[nH]cc(C(=O)c4ccc(Oc5ccccc5)cc4Cl)c23)CO1` [Compound I-16]: the IC50 in [8] (setting [11]) was found to be 2.2 µM.

In the case of `Cc1cccnc1[C@H]1CCC[C@@H](c2ncccc2C)N1CCCCNC(=O)OC[C@@H]1CC[C@@H](Nc2ncnc3[nH]cc(C(=O)c4ccc(Oc5ccccc5)cc4Cl)c23)CO1` [Compound I-18], the IC50 in [8] (setting [11]) came to 2.4 µM.

In the case of `COc1ccc(F)cc1C(=O)NCc1ccc(-c2nn([C@@H](C)C(F)(F)F)c(N)c2C(N)=O)cc1` [LOXO-305, pirtobrutinib], the inhibition at 1 µM in assay [1] is 50 to 69%; in assay [2], 50 to 69%; in assay [3] it was under 50%; in [4] it was under 50%; in assay [5], under 50%; in assay [6] it was under 50%. Moreover, the inhibition at 1 µM in assay [7] and in [9] (setting [10]) was under 50% throughout.

Take `C=CC(=O)N1CCC([C@@H]2CCNc3c(C(N)=O)c(-c4ccc(Oc5ccccc5)cc4)nn32)CC1` [Zanubrutinib, (7S)-2-(4-phenoxyphenyl)-7-(1-prop-2-enoylpiperidin-4-yl)-4,5,6,7-tetrahydropyrazolo[1,5-a]pyrimidine-3-carboxamide]: the inhibition at 1 µM in assay [1], in assay [3], in [4], in assay [5] and in assay [9] (setting [10]) was under 50% in each case.
